Laboratory results: patent US12077503B2, “Substituted cyclic amides and their use as herbicides” (FMC CORPORATION, priority 2015, dated 2024)

Tests used:
Assay type in all cases: in vivo
[1] = tested on: Kochia (Kochia scoparia); assay: Test A preemergence; settings: for Plant response rating, Kochia: 125 g ai/ha, preemergence, 0 to 100 scale (0 no effect, 100 complete control); for Kochia plant response rating (0 to 100 scale, 0 is no effect, 100 is complete control): Preemergence, 500 g ai/ha, visual injury approx. 10 d
Procedure, shortened: (§1)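 Compounds were formulated in a non-phytotoxic solvent mixture with surfactant and applied as a preemergence directed soil spray after seeding, or sprayed postemergence over plants 2 to 10 cm tall at the one- to two-leaf stage. Evaluation after about 10 d compared treated with untreated controls, using a scale from 0 (no effect) to 100 (complete control).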

[2] = tested on: barnyardgrass (Echinochloa crus-galli); assay: Test A preemergence; settings: for Plant response rating, Barnyardgrass: 125 g ai/ha, preemergence, 0 to 100 scale (0 no effect, 100 complete control); for Barnyardgrass plant response rating (0 to 100 scale, 0 is no effect, 100 is complete control): Preemergence, 500 g ai/ha, visual injury approx. 10 d
Procedure, shortened: as §1

[3] = tested on: giant foxtail (Setaria faberii); assay: Test A preemergence; settings: for Plant response rating, Foxtail, Giant: 125 g ai/ha, preemergence, 0 to 100 scale (0 no effect, 100 complete control); for Foxtail, Giant plant response rating (0 to 100 scale, 0 is no effect, 100 is complete control): Preemergence, 500 g ai/ha, visual injury approx. 10 d
Procedure, shortened: as §1

[4] = tested on: pigweed (Amaranthus retroflexus); assay: Test A preemergence; settings: for Plant response rating, Pigweed: 125 g ai/ha, preemergence, 0 to 100 scale (0 no effect, 100 complete control); for Pigweed plant response rating (0 to 100 scale, 0 is no effect, 100 is complete control): Preemergence, 500 g ai/ha, visual injury approx. 10 d
[5] = tested on: ragweed (common ragweed, Ambrosia elatior); assay: Test A preemergence; settings: for Plant response rating, Ragweed: 125 g ai/ha, preemergence, 0 to 100 scale (0 no effect, 100 complete control); for Ragweed plant response rating (0 to 100 scale, 0 is no effect, 100 is complete control): Preemergence, 500 g ai/ha, visual injury approx. 10 d
Procedure, shortened: as §1

[6] = tested on: ryegrass, Italian (Italian ryegrass, Lolium multiflorum); assay: Test A preemergence; settings: for Plant response rating, Ryegrass, Italian: 125 g ai/ha, preemergence, 0 to 100 scale (0 no effect, 100 complete control); for Ryegrass, Italian plant response rating (0 to 100 scale, 0 is no effect, 100 is complete control): Preemergence, 500 g ai/ha, visual injury approx. 10 d
Procedure, shortened: as §1

[7] = tested on: Galium (catchweed bedstraw, Galium aparine); assay: Test A postemergence; settings: postemergence; for Galium plant response rating: 125 g ai/ha, visual injury rating on 0 to 100 scale (0 no effect, 100 complete control), approx. 10 d; for Plant response rating, Galium: 500 g ai/ha, 0 to 100 scale, 0 no effect, 100 complete control
Procedure, shortened: as §1

[8] = tested on: Kochia (Kochia scoparia); assay: Test A postemergence; settings: postemergence; for Kochia plant response rating: 125 g ai/ha, visual injury rating on 0 to 100 scale (0 no effect, 100 complete control), approx. 10 d; for Plant response rating, Kochia: 500 g ai/ha, 0 to 100 scale, 0 no effect, 100 complete control
Procedure, shortened: as §1

[9] = tested on: barnyardgrass (Echinochloa crus-galli); assay: Test A postemergence; settings: postemergence; for Barnyardgrass plant response rating: 125 g ai/ha, visual injury rating on 0 to 100 scale (0 no effect, 100 complete control), approx. 10 d; for Plant response rating, Barnyardgrass: 500 g ai/ha, 0 to 100 scale, 0 no effect, 100 complete control
Procedure, shortened: as §1

[10] = tested on: blackgrass (Alopecurus myosuroides); assay: Test A postemergence; settings: postemergence; for Blackgrass plant response rating: 125 g ai/ha, visual injury rating on 0 to 100 scale (0 no effect, 100 complete control), approx. 10 d; for Plant response rating, Blackgrass: 500 g ai/ha, 0 to 100 scale, 0 no effect, 100 complete control
Procedure, shortened: as §1

[11] = tested on: corn (Zea mays); assay: Test A postemergence; settings: postemergence; for Corn plant response rating: 125 g ai/ha, visual injury rating on 0 to 100 scale (0 no effect, 100 complete control), approx. 10 d; for Plant response rating, Corn: 500 g ai/ha, 0 to 100 scale, 0 no effect, 100 complete control
Procedure, shortened: as §1

[12] = tested on: giant foxtail (Setaria faberii); assay: Test A postemergence; settings: postemergence; for Foxtail, Giant plant response rating: 125 g ai/ha, visual injury rating on 0 to 100 scale (0 no effect, 100 complete control), approx. 10 d; for Plant response rating, Foxtail, Giant: 500 g ai/ha, 0 to 100 scale, 0 no effect, 100 complete control
Procedure, shortened: as §1

[13] = tested on: pigweed (Amaranthus retroflexus); assay: Test A postemergence; settings: postemergence; for Pigweed plant response rating: 125 g ai/ha, visual injury rating on 0 to 100 scale (0 no effect, 100 complete control), approx. 10 d; for Plant response rating, Pigweed: 500 g ai/ha, 0 to 100 scale, 0 no effect, 100 complete control
Procedure, shortened: as §1

[14] = tested on: ragweed (common ragweed, Ambrosia elatior); assay: Test A postemergence; settings: postemergence; for Ragweed plant response rating: 125 g ai/ha, visual injury rating on 0 to 100 scale (0 no effect, 100 complete control), approx. 10 d; for Plant response rating, Ragweed: 500 g ai/ha, 0 to 100 scale, 0 no effect, 100 complete control
Procedure, shortened: as §1

[15] = tested on: ryegrass, Italian (Italian ryegrass, Lolium multiflorum); assay: Test A postemergence; settings: postemergence; for Ryegrass, Italian plant response rating: 125 g ai/ha, visual injury rating on 0 to 100 scale (0 no effect, 100 complete control), approx. 10 d; for Plant response rating, Ryegrass, Italian: 500 g ai/ha, 0 to 100 scale, 0 no effect, 100 complete control
Procedure, shortened: as §1

[16] = tested on: wheat (Triticum aestivum); assay: Test A postemergence; settings: postemergence; for Wheat plant response rating: 125 g ai/ha, visual injury rating on 0 to 100 scale (0 no effect, 100 complete control), approx. 10 d; for Plant response rating, Wheat: 500 g ai/ha, 0 to 100 scale, 0 no effect, 100 complete control
Procedure, shortened: as §1

[17] = tested on: barnyardgrass (Echinochloa crus-galli); assay: Test B flooded paddy test; settings: Flood, 250 g ai/ha; 0 to 100 scale where 0 is no effect and 100 is complete control; 13 to 15 d
Procedure, shortened: (§2)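 Plants at 2-leaf stage flooded to 3 cm above soil, with compounds applied directly to paddy water and that depth maintained. Plants kept in greenhouse 13–15 d. Visual rating versus controls on a 0 (no effect) to 100 (complete control) scale.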

[18] = tested on: ducksalad (Heteranthera limosa); assay: Test B flooded paddy test; settings: Flood, 250 g ai/ha; 0 to 100 scale where 0 is no effect and 100 is complete control; 13 to 15 d
Procedure, shortened: as §2

[19] = tested on: rice (Oryra sativa); assay: Test B flooded paddy test; settings: Flood, 250 g ai/ha; 0 to 100 scale where 0 is no effect and 100 is complete control; 13 to 15 d
Procedure, shortened: as §2

[20] = tested on: sedge, umbrella (small-flower umbrella sedge, Cyperus difformis); assay: Test B flooded paddy test; settings: Flood, 250 g ai/ha; 0 to 100 scale where 0 is no effect and 100 is complete control; 13 to 15 d
Procedure, shortened: as §2

| Structure (SMILES) | Plant response rating, Kochia [1] | Kochia plant response rating (0 to 100 scale, 0 is no effect, 100 is complete control) [1] | Plant response rating, Barnyardgrass [2] | Barnyardgrass plant response rating (0 to 100 scale, 0 is no effect, 100 is complete control) [2] | Plant response rating, Foxtail, Giant [3] | Foxtail, Giant plant response rating (0 to 100 scale, 0 is no effect, 100 is complete control) [3] | Plant response rating, Pigweed [4] | Pigweed plant response rating (0 to 100 scale, 0 is no effect, 100 is complete control) [4] | Ragweed plant response rating (0 to 100 scale, 0 is no effect, 100 is complete control) [5] | Plant response rating, Ryegrass, Italian [6] | Ryegrass, Italian plant response rating (0 to 100 scale, 0 is no effect, 100 is complete control) [6] | Galium plant response rating [7] | Plant response rating, Galium [7] | Kochia plant response rating [8] | Plant response rating, Kochia [8] | Barnyardgrass plant response rating [9] | Plant response rating, Barnyardgrass [9] | Blackgrass plant response rating [10] | Plant response rating, Blackgrass [10] | Corn plant response rating [11] | also measured |
| --- | --- | --- | --- | --- | --- | --- | --- | --- | --- | --- | --- | --- | --- | --- | --- | --- | --- | --- | --- | --- | --- |
| Cc1cc(C2CNC(=O)C2C(=O)Nc2ccc(F)c(F)c2F)ccc1F (centres unmarked) [Compound 401] | 50 | 80 | 90 | 90 | 80 | 90 | 20 | 50 | 50 | 0 | 40 | 50 | 60 | 50 | 60 | 90 | 90 | 0 | 50 | 0 | Plant response rating, Ragweed [5]: 0; Plant response rating, Corn [11]: 40; Foxtail, Giant plant response rating [12]: 30; Plant response rating, Foxtail, Giant [12]: 70; Pigweed plant response rating [13]: 0; Plant response rating, Pigweed [13]: 40; Ragweed plant response rating [14]: 30; Plant response rating, Ragweed [14]: 50; Ryegrass, Italian plant response rating [15]: 30; Plant response rating, Ryegrass, Italian [15]: 60; Wheat plant response rating [16]: 20; Plant response rating, Wheat [16]: 70; Plant response rating, Barnyardgrass [17]: 70; Plant response rating, Ducksalad [18]: 100; Plant response rating, Rice [19]: 25; Plant response rating, Sedge, Umbrella [20]: 0 |
| Cc1cc(C2CN(C)C(=O)C2C(=O)Nc2ccccc2F)ccc1F (centres unmarked) [Compound 402] | 40 | 70 | 90 | 90 | 90 | 90 | 30 | 50 | 70 | 20 | 40 | 50 | 60 | 20 | 60 | 90 | 90 | 50 | 70 | 70 | Plant response rating, Corn [11]: 80; Foxtail, Giant plant response rating [12]: 90; Plant response rating, Foxtail, Giant [12]: 90; Pigweed plant response rating [13]: 40; Plant response rating, Pigweed [13]: 50; Ragweed plant response rating [14]: 20; Plant response rating, Ragweed [14]: 60; Ryegrass, Italian plant response rating [15]: 30; Plant response rating, Ryegrass, Italian [15]: 50; Wheat plant response rating [16]: 50; Plant response rating, Wheat [16]: 80; Plant response rating, Barnyardgrass [17]: 100; Plant response rating, Ducksalad [18]: 90; Plant response rating, Rice [19]: 0; Plant response rating, Sedge, Umbrella [20]: 0 |
| Cc1cc(C2CN(C)C(=O)C2C(=O)Nc2cccc(F)c2F)ccc1F (centres unmarked) [Compound 403] | 70 | 80 | 90 | 90 | 90 | 90 | 30 | 60 | 60 | 20 | 70 | 50 | 60 | 40 | 60 | 90 | 90 | 50 | 60 | 70 | Plant response rating, Ragweed [5]: 50; Plant response rating, Corn [11]: 90; Foxtail, Giant plant response rating [12]: 90; Plant response rating, Foxtail, Giant [12]: 90; Pigweed plant response rating [13]: 50; Plant response rating, Pigweed [13]: 50; Ragweed plant response rating [14]: 0; Plant response rating, Ragweed [14]: 30; Ryegrass, Italian plant response rating [15]: 50; Plant response rating, Ryegrass, Italian [15]: 70; Wheat plant response rating [16]: 70; Plant response rating, Wheat [16]: 80; Plant response rating, Barnyardgrass [17]: 75; Plant response rating, Ducksalad [18]: 100; Plant response rating, Rice [19]: 0; Plant response rating, Sedge, Umbrella [20]: 0 |
